Measurements as given in ChEMBL document CHEMBL4138120, “Modification of C-seco taxoids through ring tethering and substituent replacement leading to effective agents against tumor drug resistance mediated by βIII-Tubulin and P-glycoprotein (P-gp) overexpressions” (Eur J Med Chem, 2017).

Key:
[1] = test system: KB; experiment: Cytotoxicity against human KB cells assessed as decrease in cell viability after 48 hrs by MTT assay; assay type: functional, cell-based
[2] = Resistance index, ratio of IC50 for human A2780AD cells to IC50 for human A2780 cells; assay type: functional
[3] = Cytotoxicity against human A2780AD cells assessed as decrease in cell viability after 48 hrs by MTT assay; assay type: functional, cell-based
[4] = test system: A2780; experiment: Cytotoxicity against human A2780 cells assessed as decrease in cell viability after 48 hrs by MTT assay; assay type: functional, cell-based; details: A2780, 48 h
[5] = Resistance index, ratio of IC50 for human Hela-beta3 cells to IC50 for human HeLa cells; assay type: functional
[6] = Cytotoxicity against human Hela-beta3 cells assessed as decrease in cell viability after 48 hrs by MTT assay; assay type: functional, cell-based
[7] = test system: HeLa; experiment: Cytotoxicity against human HeLa cells assessed as decrease in cell viability after 48 hrs by MTT assay; assay type: functional, cell-based
[8] = test system: KB-V1; experiment: Cytotoxicity against human KBV1 cells assessed as decrease in cell viability after 48 hrs by MTT assay; assay type: functional, cell-based; details: KB-V1, 48 h
[9] = Resistance index, ratio of IC50 for human KBV1 cells to IC50 for human KB cells; assay type: functional
[10] = Cytotoxicity against human Hela-beta3 cells assessed as decrease in cell viability after 48 hrs in presence of beta-3 tubulin siRNA by MTT assay; assay type: functional, cell-based
[11] = test system: HeLa; experiment: Ratio of IC50 for human HeLa cells harboring beta-3 tubulin siRNA to IC50 for human HeLa cells; assay type: functional
[12] = species on record: Bos taurus; experiment: Induction of calf brain microtubule assembly assessed as concentration of unassembled tubulin at 25 uM incubated for 45 mins by spectrophotometric method (reference value: >20 uM)
[13] = Cell cycle arrest in human Hela-beta3 cells assessed as concentration at which maximal accumulation at G2/M phase after 20 hrs by propidium iodide staining-based flow cytometric method; assay type: functional
[14] = test system: HeLa; experiment: Cell cycle arrest in human HeLa cells assessed as concentration at which maximal accumulation at G2/M phase after 20 hrs by propidium iodide staining-based flow cytometric method; assay type: functional
[15] = species on record: Bos taurus; experiment: Displacement of Flutax-2 from calf brain microtubule after 20 mins by fluorescence polarization assay relative to paclitaxel
[16] = Potency index, ratio of paclitaxel IC50 to test compound IC50 for human A2780AD cells; assay type: functional

In the case of CC(=O)O[C@H]1C(=O)[C@@]2(C)[C@H]([C@H](OC(=O)c3ccccc3)[C@]3(O)C[C@H](OC(=O)[C@H](O)[C@@H](NC(=O)c4ccccc4)c4ccccc4)C(C)=C1C3(C)C)[C@]1(OC(C)=O)CO[C@@H]1C[C@@H]2O [PACLITAXEL], the IC50 [1] is reported as 1.9 nM, the “Ratio IC50” value [2] is reported as 759 - 1198 and the IC50 [3] is reported as 1280 to 4550 nM. For the same molecule, the IC50 [4] was 1.07 to 6 nM, the “Ratio IC50” value [5] was 19.6 - 31.8 and the IC50 [6] was 19.7 to 34 nM. The IC50 [7] was 1.1 to 1.3 nM, the IC50 [8] was 9800 nM and the “Ratio IC50” value [9] was 5157. For the same molecule, the IC50 [10] was 9 nM, the “Ratio IC50” value [11] was 4 and the Unassembled tubulin concentration [12] was 5.36 µM. It also gave an Activity [13] of 15 nM and an Activity [14] of 35 nM.

With CC(=O)O[C@@]12CO[C@@H]1CCOC/C=C/CO/C1=C(\C)[C@@H]2[C@H](OC(=O)c2cccc(N=[N+]=[N-])c2)[C@]2(O)C[C@H](OC(=O)[C@H](O)[C@@H](NC(=O)c3ccccc3)c3ccccc3)C(C)=C(C1=O)C2(C)C the IC50 [1] was 15 nM, the “Ratio IC50” value [2] was 11.4 and the IC50 [3] was 32 nM. The IC50 [4] was 2.8 nM, the “Ratio IC50” value [5] was 64 and the IC50 [6] was 45 nM. The IC50 [7] was 0.7 nM, the IC50 [8] was 94 nM and the “Ratio IC50” value [9] was 6.2. For the same molecule, the fold change (FC) [15] was 1.15, the Unassembled tubulin concentration [12] was 2.34 µM and the Activity [13] was 15 nM. For the same molecule, the Activity [14] was 25 nM.

With COCC[C@H]1OC[C@@]1(OC(C)=O)[C@@H]1/C(C)=C(/O)C(=O)C2=C(C)[C@@H](OC(=O)[C@H](O)[C@@H](NC(=O)c3ccccc3)c3ccccc3)C[C@@](O)([C@H]1OC(=O)c1ccccc1)C2(C)C the “Ratio IC50” value [5] was 7.6, the IC50 [6] was 226 nM and the IC50 [7] was 30 nM.

With CC(=O)O[C@@]12CO[C@@H]1CCOCCCCO/C1=C(\C)[C@@H]2[C@H](OC(=O)c2ccccc2)[C@]2(O)C[C@H](OC(=O)[C@H](O)[C@@H](NC(=O)c3ccccc3)c3ccccc3)C(C)=C(C1=O)C2(C)C the “Ratio IC50” value [5] was 6.9, the IC50 [6] was 58 nM and the IC50 [7] was 8 nM. The fold change (FC) [15] was 0.89.

For CO/C1=C(\C)[C@@H]([C@]2(OC(C)=O)CO[C@@H]2CCO)[C@H](OC(=O)c2ccccc2)[C@]2(O)C[C@H](OC(=O)[C@H](O)[C@@H](NC(=O)c3ccccc3)c3ccccc3)C(C)=C(C1=O)C2(C)C, the “Ratio IC50” value [5] was 12.3, the IC50 [6] was 3840 nM and the IC50 [7] was 312 nM.

With CC(=O)O[C@@]12CO[C@@H]1CCOC/C=C/CCO/C1=C(\C)[C@@H]2[C@H](OC(=O)c2ccccc2)[C@]2(O)C[C@H](OC(=O)[C@H](O)[C@@H](NC(=O)c3ccccc3)c3ccccc3)C(C)=C(C1=O)C2(C)C the “Ratio IC50” value [5] was 5.7, the IC50 [6] was 158 nM and the IC50 [7] was 27.9 nM. The fold change (FC) [15] was 0.23.

With CC(=O)O[C@@]1([C@@H]2/C(C)=C(/O)C(=O)C3=C(C)[C@@H](OC(=O)[C@H](O)[C@@H](NC(=O)c4ccccc4)c4ccccc4)C[C@@](O)([C@H]2OC(=O)c2ccccc2)C3(C)C)CO[C@@H]1CCO the “Ratio IC50” value [2] was over 35.4, the IC50 [3] was over 10000 nM and the IC50 [4] was 282 nM. The “Ratio IC50” value [5] was 15.6, the IC50 [6] was 2980 nM and the IC50 [7] was 192 nM. The fold change (FC) [15] was 0.1.

In the case of COc1cccc(C(=O)O[C@H]2[C@H]([C@]3(OC(C)=O)CO[C@@H]3CCO)/C(C)=C(/O)C(=O)C3=C(C)[C@@H](OC(=O)[C@H](O)[C@H](CC(C)C)NC(=O)OC(C)(C)C)C[C@]2(O)C3(C)C)c1, the IC50 [1] is reported as 2.9 nM, the “Ratio IC50” value [2] is reported as 279 and the IC50 [3] is reported as 1420 nM. For the same molecule, the IC50 [4] was 5.1 nM, the “Ratio IC50” value [5] was 33.6 and the IC50 [6] was 72 nM. For the same molecule, the IC50 [7] was 2.1 nM, the IC50 [8] was 3400 nM and the “Ratio IC50” value [9] was 1172. For the same molecule, the fold change (FC) [15] was 1.28, the Unassembled tubulin concentration [12] was 16.6 µM and the Activity [13] was 25 nM. It also gave an Activity [14] of 80 nM.

For CC(=O)O[C@@]12CO[C@@H]1CCOC/C=C\CCO/C1=C(\C)[C@@H]2[C@H](OC(=O)c2ccccc2)[C@]2(O)C[C@H](OC(=O)[C@H](O)[C@@H](NC(=O)c3ccccc3)c3ccccc3)C(C)=C(C1=O)C2(C)C, the “Ratio IC50” value [2] was 87.4, the IC50 [3] was 2190 nM and the IC50 [4] was 25.1 nM. For the same molecule, the “Ratio IC50” value [5] was 5.1, the IC50 [6] was 34 nM and the IC50 [7] was 6.7 nM. It also gave a fold change (FC) [15] of 0.96.

In the case of CC(=O)O[C@@]12CO[C@@H]1CCOCCCCCO/C1=C(\C)[C@@H]2[C@H](OC(=O)c2ccccc2)[C@]2(O)C[C@H](OC(=O)[C@H](O)[C@@H](NC(=O)c3ccccc3)c3ccccc3)C(C)=C(C1=O)C2(C)C, the “Ratio IC50” value [2] is reported as 55, the IC50 [3] is reported as 1400 nM and the IC50 [4] is reported as 25.4 nM. For the same molecule, the “Ratio IC50” value [5] was 6, the IC50 [6] was 13.3 to 20 nM and the IC50 [7] was 3.3 nM. For the same molecule, the “Ratio IC50” value [16] was 2 - 3, the IC50 [10] was 5.2 nM and the “Ratio IC50” value [11] was 1.5. For the same molecule, the fold change (FC) [15] was 1.3.

In the case of CC(=O)O[C@@]12CO[C@@H]1CCOCCCCCCO/C1=C(\C)[C@@H]2[C@H](OC(=O)c2ccccc2)[C@]2(O)C[C@H](OC(=O)[C@H](O)[C@@H](NC(=O)c3ccccc3)c3ccccc3)C(C)=C(C1=O)C2(C)C, the “Ratio IC50” value [5] is reported as 5.3, the IC50 [6] is reported as 118 nM and the IC50 [7] is reported as 22 nM. It also gave a fold change (FC) [15] of 0.61.

In the case of CC(=O)O[C@@]1([C@@H]2/C(C)=C(/O)C(=O)C3=C(C)[C@@H](OC(=O)[C@H](O)[C@H](CC(C)C)NC(=O)OC(C)(C)C)C[C@@](O)([C@H]2OC(=O)c2cccc(N=[N+]=[N-])c2)C3(C)C)CO[C@@H]1CCO, the IC50 [1] is reported as 5.2 nM, the “Ratio IC50” value [2] is reported as 23.4 and the IC50 [3] is reported as 96 nM. The IC50 [4] was 4.1 nM, the “Ratio IC50” value [5] was 21 and the IC50 [6] was 19 nM. For the same molecule, the IC50 [7] was 0.9 nM, the IC50 [8] was 503 nM and the “Ratio IC50” value [9] was 97. The fold change (FC) [15] was 2.17, the Unassembled tubulin concentration [12] was 3.63 µM and the Activity [13] was 10 nM. It also gave an Activity [14] of 20 nM.

With CC(=O)O[C@@]12CO[C@@H]1CCOC/C=C/CCCO/C1=C(\C)[C@@H]2[C@H](OC(=O)c2ccccc2)[C@]2(O)C[C@H](OC(=O)[C@H](O)[C@@H](NC(=O)c3ccccc3)c3ccccc3)C(C)=C(C1=O)C2(C)C the “Ratio IC50” value [5] was 2.2, the IC50 [6] was 282 nM and the IC50 [7] was 126 nM. It also gave a fold change (FC) [15] of 0.17.

In the case of CC(=O)O[C@@]12CO[C@@H]1CCOC/C=C/CO/C1=C(\C)[C@@H]2[C@H](OC(=O)c2ccccc2)[C@]2(O)C[C@H](OC(=O)[C@H](O)[C@@H](NC(=O)c3ccccc3)c3ccccc3)C(C)=C(C1=O)C2(C)C, the “Ratio IC50” value [2] is reported as 77.1, the IC50 [3] is reported as 1720 nM and the IC50 [4] is reported as 22.3 nM. For the same molecule, the “Ratio IC50” value [5] was 7.5, the IC50 [6] was 26 nM and the IC50 [7] was 3.5 nM. For the same molecule, the fold change (FC) [15] was 0.96.

In the case of CC(=O)O[C@@]1([C@@H]2/C(C)=C(/O)C(=O)C3=C(C)[C@@H](OC(=O)[C@H](O)[C@H](CC(C)C)NC(=O)OC(C)(C)C)C[C@@](O)([C@H]2OC(=O)c2ccccc2)C3(C)C)CO[C@@H]1CCO, the IC50 [1] is reported as 6.6 nM, the “Ratio IC50” value [2] is reported as 207 and the IC50 [3] is reported as 893 nM. For the same molecule, the IC50 [4] was 4.3 nM, the “Ratio IC50” value [5] was 10 and the IC50 [6] was 33 nM. The IC50 [7] was 3.3 nM, the IC50 [8] was 255 nM and the “Ratio IC50” value [9] was 38.7. It also gave a fold change (FC) [15] of 0.132, an Unassembled tubulin concentration [12] of 3.2 µM and an Activity [13] of 15 nM. For the same molecule, the Activity [14] was 15 nM.

With CC(=O)O[C@@]1([C@@H]2/C(C)=C(/O)C(=O)C3=C(C)[C@@H](OC(=O)[C@H](O)[C@@H](NC(=O)c4ccccc4)c4ccccc4)C[C@@](O)([C@H]2OC(=O)c2cccc(N=[N+]=[N-])c2)C3(C)C)CO[C@@H]1CCO the IC50 [1] was 5.1 nM, the IC50 [3] was over 5000 nM and the IC50 [4] was 1.6 nM. The “Ratio IC50” value [5] was 209, the IC50 [6] was 209 nM and the IC50 [7] was 1 nM. For the same molecule, the IC50 [8] was 5100 nM, the “Ratio IC50” value [9] was 1000 and the fold change (FC) [15] was 1.18. It also gave an Unassembled tubulin concentration [12] of 3.82 µM, an Activity [13] of 20 nM and an Activity [14] of 55 nM.
